For 17 molecules, IC50 results are on record in patent publication US9120749B2, “Quinoline derivatives and MELK inhibitors containing the same” (ONCOTHERAPY SCIENCE, INC., priority 2010, dated 2015).

The IC50 is the concentration at which inhibition is half-maximal.

Assay [1] concerns HT-1197 cells. As to the kind of experiment: Cell-based assay: anti-proliferative activity, Cell Counting Kit-8, 72 hours (HT-1197, negative control without MELK expression). The note with it: Homo sapiens, HT1197, 72 h, HT1197 cells (negative control, no MELK expression), 72 hours. An outline of the steps: (§1)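 First, lysates underwent western blotting with anti-MELK antibody to establish expression. Next, cells went into 96-well plates. Then candidate inhibitors were added. Finally, viability was determined by CCK-8 at 72 h and IC50 computed.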

Assay [2] relates to DU4475 cells. As to the kind of experiment: Cell-based assay: anti-proliferative activity, Cell Counting Kit-8, 72 hours (DU4475). The note with it: Homo sapiens, DU-4475, 72 h.
For assay [3], the target named is MELK (Homo sapiens, UniProt Q14680). Put plainly: Kinase assay: MELK activity, phosphorylation of FITC-labeled histone H3 peptide measured by IMAP fluorescence polarization. Particulars: read-out: IC50 (μM) (kinase assay). Format: biochemical. An outline of the steps: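 Kinase reactions ran with or without test compound (final DMSO 1%) on a fluorescein-tagged H3 peptide. Progressive binding solution was added to terminate them. After a half-hour room-temperature incubation, polarization was measured.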
MELK, sequence (Q14680 whole entry, looked up): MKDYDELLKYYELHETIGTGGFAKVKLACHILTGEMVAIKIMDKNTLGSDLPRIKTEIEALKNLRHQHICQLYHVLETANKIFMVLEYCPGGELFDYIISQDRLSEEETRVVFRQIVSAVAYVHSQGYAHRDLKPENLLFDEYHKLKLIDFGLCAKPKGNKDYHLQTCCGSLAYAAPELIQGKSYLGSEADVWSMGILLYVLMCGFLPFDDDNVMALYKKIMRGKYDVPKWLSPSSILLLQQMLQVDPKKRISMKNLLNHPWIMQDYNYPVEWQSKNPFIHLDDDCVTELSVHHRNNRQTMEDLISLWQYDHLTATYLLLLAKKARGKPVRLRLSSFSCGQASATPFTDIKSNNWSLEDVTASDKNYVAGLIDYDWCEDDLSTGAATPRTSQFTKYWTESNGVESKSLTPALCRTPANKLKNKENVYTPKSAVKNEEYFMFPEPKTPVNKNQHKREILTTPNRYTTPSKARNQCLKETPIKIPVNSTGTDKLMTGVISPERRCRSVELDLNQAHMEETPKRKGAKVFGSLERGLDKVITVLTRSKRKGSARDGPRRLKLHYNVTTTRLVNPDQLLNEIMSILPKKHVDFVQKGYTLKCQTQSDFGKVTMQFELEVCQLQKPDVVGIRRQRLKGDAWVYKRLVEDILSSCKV
For orientation: Fluorescence polarisation rises when a labelled molecule tumbles more slowly, as on binding a larger partner.

The test system of assay [4] is A549 cells. Put plainly: Cell-based assay: anti-proliferative activity, Cell Counting Kit-8, 72 hours (A549). The note with it: Homo sapiens, A549, 72 h, 72 hours. An outline of the steps:
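Cell Counting Kit-8 read-out of A549 growth after 72 hours of inhibitor exposure, cells plated in 96-well format. Values reported as IC50.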
A general note: Tetrazolium assays rely on reduction of a dye to a coloured formazan, in cell work by metabolically active cells.

The subject of assay [5] is T47D cells. As to the kind of experiment: Cell-based assay: anti-proliferative activity, Cell Counting Kit-8, 72 hours (T47D). Particulars: Homo sapiens, T47D, 72 h. Put shortly: as §1
Assay [6] deals with 22Rv1 cells. Put plainly: Cell-based assay: anti-proliferative activity, Cell Counting Kit-8, 72 hours (22Rv1). The note with it: Homo sapiens, 22Rv1, 72 h.
[7] abbreviates: MELK kinase assay, IMAP fluorescence polarization, 50 micro-M ATP.

Counter-ions that a name gives are not always drawn. Like-named read-outs stand apart in the source and are kept apart here.

For `CC(=O)c1cnc2ccc(-c3cc(Cl)c(O)c(Cl)c3)cc2c1N[C@H]1CC[C@H](CN2CCCC2)CC1` [Example 767], the IC50 was 24 µM in assay [1]; 0.083 µM in assay [2]; 0.0018 µM in assay [3]; 0.16 µM in assay [4]; 0.12 µM in assay [5]; 0.15 µM in assay [6].

On to `CC(=O)c1cnc2ccc(-c3cc(F)c(O)c(Cl)c3)cc2c1N[C@H]1CC[C@H](CN2CCC[C@@H]2CO)CC1` [Example 808, 1-(6-(3-chloro-5-fluoro-4-hydroxyphenyl)-4-(1R,4R)-4-(((R)-2-(hydroxymethyl)pyrrolidin-1-yl)methyl)cyclohexylamino)quinolin-3-yl)ethanone hydrochloride], for which the IC50 in assay [1] worked out at 8.2 µM; in assay [2], 0.11 µM; in assay [3], 0.0065 µM; in assay [4] it was 0.22 µM; in assay [5] it was 0.12 µM; in assay [6], 0.22 µM.

Regarding `CN(C)CCc1cccc(Nc2c(C(=O)C3CC3)cnc3ccc(-c4cc(F)c(O)c(F)c4)cc23)c1` [Example 796, cyclopropyl(6-(3,5-difluoro-4-hydroxyphenyl)-4-(3-(2-(dimethylamino)ethyl)phenylamino)quinolin-3-yl)methanone], the IC50 was found to be 0.67 µM in assay [1]; 0.14 µM in assay [2]; 0.026 µM in assay [3]; 0.14 µM in assay [4]; 0.43 µM in assay [5]; 0.52 µM in assay [6].

As for `CCN(C)C[C@H]1CC[C@H](Nc2c(C(C)=O)cnc3ccc(-c4cc(Cl)c(O)c(Cl)c4)cc23)CC1` [Example 817, 1-(6-(3,5-dichloro-4-hydroxyphenyl)-4-((1R,4R)-4-((ethyl(methyl)amino)methyl)cyclohexylamino)quinolin-3-yl)ethanone], the IC50 was found to be 11 µM in assay [1]; 0.074 µM in assay [2]; 0.0014 µM in assay [3] (setting [7]); 0.15 µM in assay [4]; 0.097 µM in assay [5]; 0.12 µM in assay [6].

As to `CC(=O)c1cnc2ccc(-c3cc(Cl)c(O)c(Cl)c3)cc2c1N[C@H]1CC[C@H](N(C)C)CC1` [Example 765, 1-{6-(3,5-Dichloro-4-hydroxyphenyl)-4-[trans-4-(dimethylamino)cyclohexylamino]quinolin-3-yl}ethanone], the IC50 in assay [1] was 1.7 µM; in assay [2], 0.047 µM; in assay [3] it was 0.0022 µM; in assay [4], 0.17 µM; in assay [5], 0.081 µM; in assay [6], 0.14 µM.

For the molecule `CN1CCN(CCc2cccc(Nc3c(C(=O)C4CC4)cnc4ccc(-c5cc(Cl)c(O)c(Cl)c5)cc34)c2)CC1` [Example 829, cyclopropyl(6-(3,5-dichloro-4-hydroxyphenyl)-4-(3-(2-(4-methylpiperazin-1-yl)ethyl)phenylamino)quinolin-3-yl)methanone], the IC50 in assay [1] came out at 5.7 µM; in assay [2] it was 0.057 µM; in assay [3] (setting [7]), 0.0051 µM; in assay [4], 0.087 µM; in assay [5], 0.7 µM; in assay [6], 0.23 µM.

Take `CC(=O)c1cnc2ccc(-c3cc(F)c(O)c(Cl)c3)cc2c1N[C@H]1CC[C@H](CN2CCC(N)C2)CC1` (stereo partly drawn) [Example 786, 1-(4-(1R,4R)-4-((3-aminopyrrolidin-1-yl)methyl)cyclohexylamino)-6-(3-chloro-5-fluoro-4-hydroxyphenyl)quinolin-3-yl)ethanone hydrochloride]: the IC50 in assay [1] is 10 µM; in assay [2], 0.23 µM; in assay [3], 0.0031 µM; in assay [4], 0.96 µM; in assay [5], 0.07 µM; in assay [6], 0.17 µM.

For `CCC(=O)c1cnc2ccc(-c3cc(Cl)c(O)c(OC)c3)cc2c1Nc1ccc(N2CCC(N)C2)nc1` (stereo not drawn) [Example 775, 1-(4-(6-(3-aminopyrrolidin-1-yl)pyridin-3-ylamino)-6-(3-chloro-4-hydroxy-5-methoxyphenyl)quinolin-3-yl)propan-1-one], the IC50 stood at 0.75 µM in assay [1]; 0.065 µM in assay [2]; 0.0034 µM in assay [3]; 0.049 µM in assay [4]; 0.049 µM in assay [5]; 0.12 µM in assay [6].

`CC(=O)c1cnc2ccc(-c3cc(Cl)c(O)c(Cl)c3)cc2c1NC1CCCN(CCN(C)C)C1` (stereo not drawn) [Example 850, 1-(6-(3,5-dichloro-4-hydroxyphenyl)-4-(1-(2-(dimethylamino)ethyl)piperidin-3-ylamino)quinolin-3-yl)ethanone]: the IC50 in assay [1] was 4 µM; in assay [2] it was 0.32 µM; in assay [3] (setting [7]) it was 0.0019 µM; in assay [4] it was 0.89 µM; in assay [5] it was 1.1 µM; in assay [6], 1.2 µM.

`CCN(C)C[C@H]1CC[C@H](Nc2c(C(C)=O)cnc3ccc(-c4cc(Cl)c(O)c(OC)c4)cc23)CC1` [Example 816, 1-(6-(3-chloro-4-hydroxy-5-methoxyphenyl)-4-(1R,4R)-4-((ethyl(methyl)amino)methyl)cyclohexylamino)quinolin-3-yl)ethanone hydrochloride]: the IC50 in assay [1] was 7.3 µM; in assay [2] it was 0.36 µM; in assay [3] (setting [7]) it was 0.0027 µM; in assay [4], 0.25 µM; in assay [5], 0.28 µM; in assay [6], 0.44 µM.

`CC(=O)c1cnc2ccc(-c3cc(F)c(O)c(Cl)c3)cc2c1NC1CCCN(CCN(C)C)C1` (stereo not drawn) [Example 851, 1-(6-(3-chloro-5-fluoro-4-hydroxyphenyl)-4-(1-(2-(dimethylamino)ethyl)piperidin-3-ylamino)quinolin-3-yl)ethanone]: the IC50 in assay [1] is 6 µM; in assay [2], 0.65 µM; in assay [3] (setting [7]) it was 0.04 µM; in assay [4], 1.6 µM; in assay [5], 1.6 µM; in assay [6] it was 1.5 µM.

As to `CNC1CCCN(c2ccc(Nc3c(C(C)=O)cnc4ccc(-c5cc(F)c(O)c(Cl)c5)cc34)cn2)C1` (stereo not drawn) [Example 815, 1-(6-(3-chloro-5-fluoro-4-hydroxyphenyl)-4-((6-(3-(methylamino)piperidin-1-yl)pyridin-3-yl)amino)quinolin-3-yl)ethanone trihydrochloride], the IC50 in assay [1] is 0.052 µM; in assay [2] it was 0.041 µM; in assay [3] (setting [7]), 0.0018 µM; in assay [4] it was 0.041 µM; in assay [5], 0.016 µM; in assay [6] it was 0.034 µM.

In the case of `CC(=O)c1cnc2ccc(-c3cc(Cl)c(O)c(Cl)c3)cc2c1N[C@H]1CCC[C@H](CCN(C)C)C1` [Example 861, 1-(6-(3,5-dichloro-4-hydroxyphenyl)-4-(((1S,3R)-3-(2-(dimethylamino)ethyl)cyclohexyl)amino)quinolin-3-yl)ethanone hydrochloride], the IC50 in assay [1] is 1 µM; in assay [2], 0.19 µM; in assay [3] (setting [7]) it was 0.0032 µM; in assay [4] it was 0.25 µM; in assay [5], 0.22 µM; in assay [6], 0.24 µM.

On to `CC(=O)c1cnc2ccc(-c3cc(F)c(O)c(Cl)c3)cc2c1N[C@H]1CC[C@H](N(C)C)CC1` [Example 763, 1-{6-(3-Chloro-5-fluoro-4-hydroxyphenyl)-4-[trans-4-(dimethylamino)cyclohexylamino]quinolin-3-yl}ethanone], for which the 50% inhibitory concentration (IC50) came to 1.8 µM in assay [1]; 0.093 µM in assay [2]; 0.0087 µM in assay [3]; 0.27 µM in assay [4]; 0.05 µM in assay [5]; 0.14 µM in assay [6].

Consider `CC(=O)c1cnc2ccc(-c3cc(Cl)c(O)c(Cl)c3)cc2c1Nc1cnn(C2CCN(C)C2)c1` (stereo not drawn) [Example 814, 1-(6-(3,5-dichloro-4-hydroxyphenyl)-4-((1-(1-methylpyrrolidin-3-yl)-1H-pyrazol-4-yl)amino)quinolin-3-yl)ethanone dihydrochloride], for which the IC50 in assay [1] was 0.78 µM; in assay [2], 0.057 µM; in assay [3] (setting [7]), 0.0009 µM; in assay [4], 0.29 µM; in assay [5] it was 0.14 µM; in assay [6] it was 0.13 µM.

With `COc1cc(-c2ccc3ncc(C(C)=O)c(N[C@H]4CC[C@H](CN5CCC(N)C5)CC4)c3c2)cc(Cl)c1O` (stereo partly drawn) [Example 780, 1-(4-(1R,4R)-4-((3-aminopyrrolidin-1-yl)methyl)cyclohexylamino)-6-(3-chloro-4-hydroxy-5-methoxyphenyl)quinolin-3-yl)ethanone hydrochloride], the IC50 in assay [1] stood at 3.2 µM; in assay [2] it was 1.5 µM; in assay [3], 0.002 µM; in assay [4], 0.62 µM; in assay [5] it was 0.41 µM; in assay [6] it was 0.67 µM.

In the case of `CNC1CCN(c2ccc(Nc3c(C(=O)C4CC4)cnc4ccc(-c5cc(F)c(O)c(Cl)c5)cc34)cn2)C1` (stereo not drawn) [Example 789, (6-(3-chloro-5-fluoro-4-hydroxyphenyl)-4-((6-(3-(methylamino)pyrrolidin-1-yl)pyridin-3-yl)amino)quinolin-3-yl)(cyclopropyl)methanone trihydrochloride], the IC50 in assay [1] worked out at 0.8 µM; in assay [2], 0.053 µM; in assay [3], 0.0028 µM; in assay [4] it was 0.076 µM; in assay [5], 0.039 µM; in assay [6] it was 0.077 µM.
